pKd: −log10 of the molar value.
What follows are molecules tested against human IKCa1 channel (Homo sapiens, UniProt O15554) (assay: cell-based). Details: not given.
Chain of human IKCa1 channel (O15554 whole entry): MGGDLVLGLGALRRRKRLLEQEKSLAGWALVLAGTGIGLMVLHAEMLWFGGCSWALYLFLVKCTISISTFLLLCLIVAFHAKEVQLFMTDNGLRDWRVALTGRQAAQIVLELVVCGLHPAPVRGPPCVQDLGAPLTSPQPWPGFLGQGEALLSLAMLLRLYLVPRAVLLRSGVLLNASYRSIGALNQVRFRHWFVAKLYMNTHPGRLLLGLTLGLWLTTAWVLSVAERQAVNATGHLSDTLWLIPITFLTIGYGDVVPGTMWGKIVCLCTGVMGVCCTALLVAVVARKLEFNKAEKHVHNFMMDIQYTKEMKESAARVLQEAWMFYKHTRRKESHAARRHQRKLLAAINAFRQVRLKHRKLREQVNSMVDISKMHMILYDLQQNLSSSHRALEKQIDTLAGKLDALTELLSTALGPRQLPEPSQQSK
Method: COS-7 cells, maintained in Dulbecco's modified Eagle's medium (DMEM) containing 10% heat-inactivated fetal calf serum, 4 mM L-glutamine and 1 mM Na^+ pyruvate, were transiently transfected with hlKCa1.
Electrophysiological experiments were carried out in the whole-cell configuration of the patch-clamp technique using an EPC-9 amplifier (HEKA Elektronik, Lambrecht Germany) interfaced to a computer running acquisition and analysis software (Pulse and Pulsfit; HEKA Elektronik). Pipettes were pulled from soft glass capillaries, coated with Sylgard (Dow-Corning, Midland, Mich.), and fire polished to resistances of 2.0–4.5 MΩ measured in the bath. COS-7 cells were trypsinized and plated on glass coverslips 3 h before measurement. […] To prevent activation of the native chloride channels in COS-7 cells an aspartate Ringer solution was used as an external solution (160 mM Na^+ aspartate, 4.5 mM KCl, 2 mM CaCl2, 1 mM MgCl2, 5 mM HEPES, adjusted to pH 7.4 with NaOH, with an osmolarity of 290–310 mosM). 200 ms voltage ramps from −120 mV to 40 mV every 10 s were used. The holding potential in all experiments was −80 mV. Series resistance compensation was not employed. The reduction of slope conductance at −80 mV was used to determine the Kd-value by fitting the values to the Hill equation with a Hill coefficient of unity.
In the case of `COc1ccc(C(O)(c2ccc(OC)cc2)c2ccc(OC)cc2)cc1` [Compound T16, Tris-(4-methoxyphenyl) methanol], the pKd was 5.00.
For `Cc1ccn(C(c2ccccc2)(c2ccccc2)c2ccccc2Cl)n1` [Compound T63, 1-[(2-Chlorophenyl)diphenylmethyl]-3-methyl-1H-pyrazole], the pKd was 5.96.
In the case of `FC(F)(F)c1ccc(C(Nc2nccs2)(c2ccccc2)c2ccccc2)cc1` [Compound T61, N-Diphenyl[4-(trifluoromethyl)phenyl]-methyl-N-(1,3-thiazol-2-yl)amine], the pKd was 4.46.
For `FC(F)(F)c1ccn(C(c2ccccc2)(c2ccccc2)c2ccccc2C(F)(F)F)n1` [Compound T59, 1-{Diphenyl[2-(trifluoromethyl)-phenyl]methyl}-3-(trifluoromethyl)-1H-pyrazole], the pKd was 4.60.
In the case of `Fc1ccccc1C(Nc1nccs1)(c1ccccc1)c1ccccc1` [Compound T78, N-[(2-Fluorophenyl)diphenylmethyl]-N-(1,3-thiazol-2yl)amine], the pKd was 4.92.
With `c1ccc(C(c2ccccc2)(c2cccs2)n2cccn2)cc1` [Compound T38, 1-[Diphenyl(2-thienyl)methyl]-1H-pyrazole] the pKd was 5.96.
Molecule `Fc1ccccc1C(c1ccccc1)(c1ccccc1)n1cccn1` [Compound T46, 1-[(2-Fluorophenyl)diphenylmethyl]-1H-pyrazole] has a pKd of 7.40.
For `Clc1ccccc1C(c1ccccc1)(c1ccccc1)n1cnnn1` [Compound T84, 1-[(2-Chlorophenyl)diphenylmethyl]-1H-1,2,3,4-tetrazole], the pKd was 7.35.
With `OC(c1ccccc1)(c1cccs1)c1ccccc1Cl` (centres unmarked) [Compound T43, (2-Chlorophenyl)(2-thienyl)phenyl methanol] the pKd was 6.12.
`Cc1csc(NC(c2ccccc2)(c2ccccc2)c2ccccc2Cl)n1` [Compound T79, N-[(2-Chlorophenyl)diphenylmethyl]-N-(4-methyl-1,3-thiazol-2yl)amine] gave a pKd of 5.10.
`FC(F)(F)c1ccc(C(c2ccccc2)(c2ccccc2)n2cccn2)cc1` [Compound T60, 1-{Diphenyl[4-(trifluoromethyl)-phenyl]methyl}-1H-pyrazole] showed a pKd of 5.82.
`O=[N+]([O-])c1ccc(S(=O)(=O)c2cnc(NC(c3ccccc3)(c3ccccc3)c3ccccc3Cl)s2)cc1` [Compound T81, N-{5-[(4-Nitrophenyl)sulfonyl]-1,3-thiazol-2yl}-N[(2-chlorophenyl)-(diphenyl)-methyl]amine] showed a pKd of 4.82.
`OC(c1ccccc1)(c1ccccc1)c1ccc(C(F)(F)F)cc1` [Compound T55, Diphenyl(4-trifluoromethylphenyl) methanol] was tested, and the pKd was 6.09.
In the case of `Clc1ccc(C(c2ccccc2)(c2ccccc2)n2cccn2)cc1` [Compound T13, 1[(4-Chlorophenyl)diphenylmethyl]-1H-pyrazole], the pKd was 7.05.
In the case of `FC(F)(F)c1ccccc1C(Nc1ncccn1)(c1ccccc1)c1ccccc1` [Compound T73, N-Diphenyl[2-(trifluoromethyl)phenyl]-methyl-N-(2-pyrimidinyl)amine], the pKd was 4.82.
Work on `Clc1ccc(C(Nc2ccncc2)(c2ccccc2)c2ccccc2)cc1` [Compound T70, N-[(4-Chlorophenyl)diphenylmethyl]-N-(4-pyridyl)amine] yielded a pKd of 4.96.
`N#CC(c1ccccc1)(c1ccccc1)c1ccc(Cl)cc1` [Compound T26, 2-(4-Chlorophenyl)-2,2-diphenylacetonitrile] showed a pKd of 6.12.
`FC(F)(F)c1ccn(C(c2ccccc2)(c2ccccc2)c2ccccc2Cl)n1` [Compound T65, 1-[(2-Chlorophenyl)diphenylmethyl]-3-(trifluorormethyl)-1H-pyrazole] was tested, and the pKd was 5.70.
For `OC(c1ccccc1)(c1ccccc1)c1cccc(C(F)(F)F)c1` [Compound T56, Diphenyl(3-trifluoromethylphenyl) methanol], the pKd was 6.19.
In the case of `OC(c1ccccc1)(c1ccccc1)c1ccccc1C(F)(F)F` [Compound T54, Diphenyl(2-trifluoromethylphenyl) methanol], the pKd was 6.15.
Molecule `c1ccc(C(c2ccccc2)(c2cccs2)n2ccnc2)cc1` [Compound T37, 1-[Diphenyl(2-thienyl)methyl]-1H-imidazole] has a pKd of 6.00.
With `COc1ccc(C(O)(c2ccccc2)c2ccc(OC)cc2)cc1` [Compound T15, Bis-(4-methoxyphenyl)phenyl methanol] the pKd was 5.00.
`Fc1ccc(C(c2ccccc2)(c2ccccc2)n2cccn2)cc1` [Compound T28, 1-[(4-Fluorophenyl)diphenylmethyl]-1H-pyrazole] showed a pKd of 6.70.
For `Cc1cc(C)n(C(c2ccccc2)(c2ccccc2)c2ccccc2Cl)n1` [Compound T62, 1-[(2-Chlorophenyl)diphenylmethyl]-3,5-dimethyl-1H-pyrazole], the pKd was 4.92.
For `Clc1ccccc1C(Nc1ncccn1)(c1ccccc1)c1ccccc1` [Compound T68, N-[(2-Chlorophenyl)diphenylmethyl]-N-(2-pyrimidyl)amine], the pKd was 6.05.
For `Clc1ccccc1C(Nc1ccccn1)(c1ccccc1)c1ccccc1` [Compound T69, N-[(2-Chlorophenyl)diphenylmethyl]-N-(2-pyridyl)amine], the pKd was 4.55.
`OC(c1ccccc1)(c1ccc(F)cc1)c1cccs1` (centres unmarked) [Compound T14, (4-Fluorophenyl)(2-thienyl)phenyl methanol] gave a pKd of 6.10.

Same assay, conditions: hIKCa1 in COS-7 cells; reduction of slope conductance at −80 mV; 1 μM free Ca++ in pipette
For `OC(c1ccccc1)(c1cccc(Cl)c1)c1cccc(Cl)c1` [Compound T5, Bis-(3-chlorophenyl)phenyl methanol], the “Kd for block of IKCa1” value was “No effect at 1 μM”.
`O=C1c2ccccc2C(=O)N1C(c1ccccc1)(c1ccccc1)c1ccccc1Cl` [Compound T71, 2-[(2-Chlorophenyl)diphenylmethyl]-1H-isoindole-1,3(2H)-dione] was tested, and the “Kd for block of IKCa1” value was “No effect at 10 μM”.
With `COc1ccc(C(c2ccc(OC)cc2)(c2ccc(OC)cc2)n2cccn2)cc1` [Compound T19, 1-[Tris(4-methoxyphenyl)methyl]-1H-pyrazole] the “Kd for block of IKCa1” value was “No effect at 1 μM”.
`Clc1ccccc1C(c1ccccc1)(c1ccccc1)n1cnc2ccccc21` [Compound T85, 1-[(2-Chlorophenyl)diphenylmethyl]-1H-1,3-benzimidazole] was tested, and the “Kd for block of IKCa1” value was “No effect at 1 μM”.
In the case of `c1ccc(C(NCCN(CCNC(c2ccccc2)(c2ccccc2)c2ccccc2)CCNC(c2ccccc2)(c2ccccc2)c2ccccc2)(c2ccccc2)c2ccccc2)cc1` [Compound T20], the “Kd for block of IKCa1” value was “No effect at 1 μM”.
For `C[n+]1ccc(C(O)(c2ccccc2)c2ccccc2)cc1` [Compound T8], the “Kd for block of IKCa1” value was “No effect at 10 μM”.

Same assay, conditions: read-out: Kd for block of IKCa1; hIKCa1 in COS-7 cells; reduction of slope conductance at −80 mV; 1 μM free Ca++ in pipette
`NC(c1ccccc1)(c1ccccc1)c1ccccc1C(F)(F)F` [Compound T82, (2-Trifluoromethylphenyl)-diphenylmethyl amine] was tested, and the pKd was 5.60.
`c1ccc(C(c2ccccc2)(c2ccccc2)n2ccnc2)cc1` [Compound T86] was tested, and the pKd was 5.82.
`NC(c1ccccc1)(c1ccccc1)c1ccccc1F` [Compound T47, (2-Fluorophenyl)diphenylmethyl amine] was tested, and the pKd was 5.70.
`COc1ccc(C(C#N)(c2ccc(OC)cc2)c2ccc(OC)cc2)cc1` [Compound T18] was tested, and the pKd was 4.40.
`COc1ccc(C(C#N)(c2ccccc2)c2ccc(OC)cc2)cc1` [Compound T17] showed a pKd of 4.46.
`CCOC(=O)C(C(=O)OCC)C(c1ccccc1)(c1ccccc1)c1ccccc1Cl` [Compound T77] was tested, and the pKd was 6.10.

Same assay, conditions: refers to TABLE 8
`Fc1ccccc1C(c1ccccc1)(c1ccccc1)n1cccn1` [Compound T46, 1-[(2-Fluorophenyl)diphenylmethyl]-1H-pyrazole] was tested, and the “IKCa1 inhibition compared with clotrimazole” value was “more potent inhibitors of IKCa1 channels than clotrimazole”.
In the case of `Clc1ccccc1C(c1ccccc1)(c1ccccc1)n1cnnn1` [Compound T84, 1-[(2-Chlorophenyl)diphenylmethyl]-1H-1,2,3,4-tetrazole], the “IKCa1 inhibition compared with clotrimazole” value was “more potent inhibitors of IKCa1 channels than clotrimazole”.
